≈ marks a conversion by molar mass, not a printed value. Calls of active or inactive are those of the source. No cut-off for these calls is given here.
How the values were obtained:
[1] = test system: Mycobacterium tuberculosis; assay: Antibacterial activity against Mycobacterium tuberculosis H37Rv in GAS medium by microplate alamar blue assay; format: functional; settings: for MIC: Mycobacterium tuberculosis, H37Rv
[2] = test system: Mycobacterium tuberculosis; assay: Antibacterial activity against Mycobacterium tuberculosis H37Rv in 7H12 medium by microplate alamar blue assay; format: functional; settings: for MIC: Mycobacterium tuberculosis, H37Rv
[3] = test system: Mycobacterium tuberculosis; assay: Antibacterial activity against Mycobacterium tuberculosis H37Rv in GAS medium at >1uM by microplate alamar blue assay; format: functional
[4] = test system: Mycobacterium tuberculosis; assay: Antibacterial activity against Mycobacterium tuberculosis H37Rv in 7H12 medium at >1uM by microplate alamar blue assay; format: functional
[5] = molecular target: T1, Decaprenylphosphoryl-beta-D-ribose oxidase (Mycobacterium smegmatis (strain ATCC 700084 / mc(2)155)) (UniProt A0R607); assay: Inhibition of DprE1 in P-14C-RPP-labelled Mycobacterium smegmatis MC2 155 cell membranes assessed as supression of conversion of decaprenylphosphoryl ribose to decaprenylphosphoryl arabinose after 1 hr by TLC analysis; format: cell-based; settings: Mycolicibacterium smegmatis MC2 155
T1 sequence (whole entry): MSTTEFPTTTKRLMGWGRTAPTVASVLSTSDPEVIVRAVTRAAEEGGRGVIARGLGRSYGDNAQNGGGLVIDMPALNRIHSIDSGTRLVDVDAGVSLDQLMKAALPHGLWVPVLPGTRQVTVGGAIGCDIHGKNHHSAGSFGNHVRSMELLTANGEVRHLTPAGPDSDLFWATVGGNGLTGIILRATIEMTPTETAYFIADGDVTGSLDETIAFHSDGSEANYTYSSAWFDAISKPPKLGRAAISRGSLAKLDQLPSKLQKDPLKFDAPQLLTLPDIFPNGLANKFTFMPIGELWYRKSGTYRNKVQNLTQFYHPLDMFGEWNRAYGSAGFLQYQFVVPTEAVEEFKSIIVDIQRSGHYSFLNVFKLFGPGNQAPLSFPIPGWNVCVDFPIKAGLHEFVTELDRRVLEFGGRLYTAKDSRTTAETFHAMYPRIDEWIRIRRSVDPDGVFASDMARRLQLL

[6] = molecular target: T2, Decaprenylphosphoryl-beta-D-ribose oxidase (Mycobacterium tuberculosis (strain ATCC 25618 / H37Rv)) (UniProt P9WJF1); assay: Reversible inhibition of recombinant Mycobacterium tuberculosis H37Rv DprE1 using FPR as substrate assessed as residual enzymatic activity preincubated for 10 mins followed by substrate addition by fluorescence assay
T2 sequence (whole entry): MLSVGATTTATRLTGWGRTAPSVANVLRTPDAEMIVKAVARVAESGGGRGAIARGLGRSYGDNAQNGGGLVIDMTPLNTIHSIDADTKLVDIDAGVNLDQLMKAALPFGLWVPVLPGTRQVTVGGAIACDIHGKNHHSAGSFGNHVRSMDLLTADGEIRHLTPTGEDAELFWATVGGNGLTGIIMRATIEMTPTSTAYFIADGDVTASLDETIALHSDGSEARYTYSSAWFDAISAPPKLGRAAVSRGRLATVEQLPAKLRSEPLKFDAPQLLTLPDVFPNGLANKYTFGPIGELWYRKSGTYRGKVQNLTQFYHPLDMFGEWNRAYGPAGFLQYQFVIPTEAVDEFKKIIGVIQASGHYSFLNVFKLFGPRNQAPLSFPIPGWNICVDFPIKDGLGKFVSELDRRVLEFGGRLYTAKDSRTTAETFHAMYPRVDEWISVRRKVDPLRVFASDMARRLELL

[7] = molecular target: T3, Decaprenylphosphoryl-beta-D-ribose oxidase (Mycobacterium tuberculosis (strain ATCC 25618 / H37Rv), UniProt P9WJF1); assay: Inhibition of recombinant Mycobacterium tuberculosis H37Rv DprE1 using FPR as substrate assessed as residual enzymatic activity preincubated for 10 mins followed by substrate addition by fluorescence assay
T3 sequence (P9WJF1 whole entry): T2 sequence (whole entry)

[8] = molecular target: T2, Decaprenylphosphoryl-beta-D-ribose oxidase (Mycobacterium tuberculosis (strain ATCC 25618 / H37Rv)); assay: Irreversible inhibition of recombinant Mycobacterium tuberculosis H37Rv DprE1 using FPR as substrate assessed as residual enzymatic activity preincubated for 10 mins followed by substrate addition by fluorescence assay

| SMILES | MIC [1] | MIC [2] | growth inhibition (GI) [3] | growth inhibition (GI) [4] | inhibition [5] | inhibition [6] | IC50 [7] | inhibition [8] | inhibition (INH) [1] | inhibition (INH) [2] |
| --- | --- | --- | --- | --- | --- | --- | --- | --- | --- | --- |
| C[C@H]1COC2(CCN(c3nc(=O)c4cc(C(F)(F)F)cc(-n5cc(Cc6ccccc6)nn5)c4s3)CC2)O1 | 9.27 µM (≈ 5.04 µg/mL) | 9.9 µM (≈ 5.38 µg/mL) | 0% | 0% |  |  |  |  |  |  |
| C[C@H]1COC2(CCN(c3nc(=O)c4cc(C(F)(F)F)cc(N=[N+]=[N-])c4s3)CC2)O1 | 0.46 µM (≈ 0.197 µg/mL) | 0.47 µM (≈ 0.201 µg/mL) |  |  | inactive | Active | 9.6 µM |  |  |  |
| C[C@H]1COC2(CCN(c3nc(=O)c4cc(C(F)(F)F)ccc4s3)CC2)O1 | 8.68 µM (≈ 3.35 µg/mL) | > 100 µM |  |  | inactive |  |  |  |  |  |
| C[C@H]1COC2(CCN(c3nc(=O)c4cc(C(F)(F)F)cc([N+](=O)[O-])c4s3)CC2)O1 [BTZ-043] | < 0.004 µM | < 0.004 µM |  |  | Active |  |  | Active |  |  |
| C[C@H]1COC2(CCN(c3nc(=O)c4cc(C(F)(F)F)cc(-n5cc(CN(C)C)nn5)c4s3)CC2)O1 | 0.95 µM (≈ 0.485 µg/mL) | 0.87 µM (≈ 0.444 µg/mL) |  |  |  |  |  |  |  |  |
| C[C@H]1COC2(CCN(c3nc(=O)c4cc(C(F)(F)F)cc(N)c4s3)CC2)O1 | > 10 µM | > 10 µM | 0% | 87% |  |  |  |  | 10% | 12% |
| CCOC(=O)c1cn(-c2cc(C(F)(F)F)cc3c(=O)nc(N4CCC5(CC4)OC[C@H](C)O5)sc23)nn1 | > 1 µM | 0.93 µM (≈ 0.489 µg/mL) | 34% |  |  |  |  |  |  |  |
| CO[C@H]1/C=C/O[C@@]2(C)Oc3c(C)c(O)c4c(O)c(c(/C=N/N5CCN(C)CC5)c(O)c4c3C2=O)NC(=O)/C(C)=C\C=C\[C@H](C)[C@H](O)[C@@H](C)[C@@H](O)[C@@H](C)[C@H](OC(C)=O)[C@@H]1C [RIFAMPIN] | 0.04 µM (≈ 0.0329 µg/mL) | 0.05 µM (≈ 0.0411 µg/mL) |  |  |  |  |  |  |  |  |

— ChEMBL document CHEMBL3804812, “Design, Syntheses, and Anti-TB Activity of 1,3-Benzothiazinone Azide and Click Chemistry Products Inspired by BTZ043” (ACS Med Chem Lett, 2016)
